Laboratory results reported in US10271552B2, “Heterocyclic compounds as pesticides” (Bayer CropScience Aktiengesellschaft, priority 2015, dated 2019).

Columns and labels:
Format in all cases: in vivo
Boophilus microplus = Boophilus microplus injection test; details: 20 μg/animal injected; adult engorged female ticks; after 7 days
Description: Boophilus microplus—Injection Test
(§1) Solvent: dimethyl sulfoxide
To produce a suitable preparation of active compound, 10 mg of active compound are dissolved in 0.5 ml solvent, and the concentrate is diluted with solvent to the desired concentration.
Five adult engorged female ticks (Boophilus microplus) are injected with 1 μl compound solution into the abdomen. The ticks are transferred into replica plates and incubated in a climate chamber.
After 7 days egg deposition of fertile eggs is monitored. Eggs where fertility is not visible are stored in a climate chamber till hatching after about 42 days. An efficacy of 100% means all eggs are infertile; 0% means all eggs are fertile.

Ctenocephalides felis [1] = experiment: whole plant or invertebrate; details: po, 48 h
Description: Ctenocephalides felis—Oral Test
as §1
To produce a suitable preparation of active compound, 10 mg of active compound are dissolved in 0.5 ml solvent, and the concentrate is diluted with cattle blood to the desired concentration.
Approximately 20 adult unfed cat fleas (Ctenocephalides felis) are placed in flea chambers. The blood chamber, sealed with parafilm on the bottom, are filled with cattle blood supplied with compound solution and placed on the gauze covered top of the flea chamber, so that the fleas are able to suck the blood. The blood chamber is heated to 37° C. whereas the flea chamber is kept at room temperature.
After 2 days mortality in % is determined. 100% means all the fleas have been killed; 0% means none of the fleas have been killed.

Haemonchus contortus = Haemonchus contortus test; details: for larval mortality (efficacy): 20 ppm, larvae, after 5 days
Description: Haemonchus contortus—Test
as §1
To produce a suitable preparation of active compound, 10 mg of active compound are dissolved in 0.5 ml solvent, and the concentrate is diluted with “Ringer's solution” to the desired concentration.
Approximately 40 larvae of the red stomach worm (Haemonchus contortus) are transferred into a test tube containing compound solution.
After 5 days the percentage of larval mortality is recorded. 100% efficacy means all larvae are killed, 0% efficacy means no larvae are killed.

Meloidogyne incognita = Meloidogyne incognita test; details: 20 ppm; eggs and larvae, salad seeds in sand; after 14 days
Description: Meloidogyne incognita—Test
Solvent: 125.0 parts by weight of acetone
To produce a suitable preparation of active compound, 1 part by weight of active compound is mixed with the stated amount of solvent, and the concentrate is diluted with water to the desired concentration.
Vessels are filled with sand, a solution of the active ingredient, a suspension containing eggs and larvae of the southern root-knot nematode (Meloidogyne incognita) and salad seeds. The salad seeds germinate and the seedlings grow. Galls develop in the roots.
After 14 days the nematicidal activity is determined on the basis of the percentage of gall formation. 100% means no galls were found and 0% means the number of galls found on the roots of the treated plants was equal to that in untreated control plants.

Phaedon cochleariae = Phaedon cochleariae spray test; details: foliar, 168 h, Chinese cabbage leaf disks, larvae, after 7 days
Description: Phaedon cochleariae—Spray Test
(§2) Solvent: 78.0 parts by weight of acetone • • 1.5 parts by weight of dimethylformamide
(§3) Emulsifier: alkylarylpolyglycol ether
(§4) To produce a suitable preparation of active compound, 1 part by weight of active compound is mixed with the stated amount of solvents and is diluted with water, containing an emulsifier concentration of 1000 ppm, to the desired concentration. Further test concentrations are prepared by dilution with emulsifier containing water.
Chinese cabbage (Brassica pekinensis) leaf disks are sprayed with a preparation of the active ingredient of the desired concentration. Once dry, the leaf disks are infested with mustard beetle larvae (Phaedon cochleariae).
After 7 days mortality in % is determined. 100% means all beetle larvae have been killed and 0% means none of the beetle larvae have been killed.

Tetranychus urticae = Tetranychus urticae spray test OP-resistant; details: foliar, 144 h, French bean leaf disks, all instars, after 6 days
Description: Tetranychus urticae—Spray Test OP-Resistant
(§5) Solvent: 78.0 parts by weight acetone • 1.5 parts by weight dimethylformamide
as §3, §4
French bean (Phaseolus vulgaris) leaf disks infected with all instars of the two spotted spidermite (Tetranychus urticae), are sprayed with a preparation of the active ingredient of the desired concentration.
After 6 days mortality in % is determined. 100% means all spider mites have been killed and 0% means none of the spider mites have been killed.

Nezara viridula = Nezara viridula spray test (solvent 52.5 acetone / 7 dimethylformamide); details: 96 h, barley plants, larvae, after 4 days
Description: Nezara viridula—Spray Test
(§6) Solvent: 52.5 parts by weight of acetone • 7 parts by weight of dimethylformamide
(§7) Emulsifier: alkylaryl polyglycolether
(§8) To produce a suitable preparation of active compound, 1 part by weight of active compound is mixed with the stated amount of solvent, and the concentrate is diluted with water, containing an emulsifier concentration of 1000 ppm, to the desired concentration. Ammonium salt and/or penetration enhancer in a dosage of 1000 ppm are added to the desired concentration if necessary.
Barley plants (Hordeum vulgare) infested with larvae of the southern green stink bug (Nezara viridula) are sprayed with a test solution containing the desired concentration of the active ingredient.
After 4 days mortality in % is determined. 100% means all the stink bugs have been killed; 0% means none of the stink bugs have been killed.

Lucilia cuprina = experiment: whole plant or invertebrate; details: 48 h
Description: as §1
10 mg active compound are dissolved in 0.5 ml Dimethylsulfoxid. Serial dilutions are made to obtain the desired rates.
Approximately 20 1st instar larvae of the Australian sheep blowfly (Lucilia cuprina) are transferred into a test tube containing minced horse meat and compound solution of the desired concentration.
After 2 days mortality in % is determined. 100% means all the larvae have been killed; 0% means none of the larvae have been killed.

Ctenocephalides felis [2] = experiment: Ctenocephalides felis in-vitro contact test, adult cat flea; details: 5 μg/cm^2 (=500 g/ha), after 48 hours
Description: Ctenocephalides felis—In-Vitro Contact Tests Adult Cat Flea
9 mg compound is solved in 1 ml acetone and diluted with acetone to the desired concentration. 250 μl of the test solution is filled in 25 ml glass test tubes and homogeneously distributed on the inner walls by rotation and tilting on a shaking device (2 h at 30 rpm). With a compound concentration of 900 ppm, an inner surface of 44.7 cm^2 and a homogeneous distribution, a dose of 5 μg/cm^2 is achieved.
After the solvent has evaporated, each test tube is filled with 5-10 adult cat fleas (Ctenocephalides felis), closed with a perforated lid and incubated in a lying position at room temperature and relative humidity. After 48 hours efficacy is determined. The fleas are patted on the ground of the tubes and are incubated on a heating plate at 45-50° C. for at most 5 minutes. Immotile or uncoordinated moving fleas, which are not able to escape the heat by climbing upwards, are marked as dead or moribund.
An efficacy of 100% means all fleas are dead or moribund; 0% means no fleas are dead or moribund.

Diabrotica balteata = Diabrotica balteata spray test; details: 160 μg/well; germinated wheat seeds, larvae; after 7 days
Description: Diabrotica Balteata—Spray Test
as §2, §3
as §4, with “solvent,” for “solvents”, “and the concentrate” for “and”
Soaked wheat seeds (Triticum aestivum) are placed in a multiple well plate filled with agar and some water and are incubated for 1 day to germinate (5 seeds per well). The germinated wheat seeds are sprayed with a test solution containing the desired concentration of the active ingredient. Afterwards each unit is infected with 10-20 larvae of the banded cucumber beetle (Diabrotica balteata).
After 7 days efficacy in % is determined. 100% means all the seedlings have grown up like in the untreated, uninfected control; 0% means none of the seedlings have grown.

Myzus persicae = Myzus persicae spray test; details: foliar, Chinese cabbage leaf disks, all instars, after 5-6 days
Description: Myzus persicae—Spray Test
as §5, §3, §4
Chinese cabbage (Brassica pekinensis) leaf disks infected with all instars of the green peach aphid (Myzus persicae), are sprayed with a preparation of the active ingredient of the desired concentration.
After 5-6 days mortality in % is determined. 100% means all aphids have been killed and 0% means none of the aphids have been killed.

Nilaparvata lugens = Nilaparvata lugens spray test (solvent 52.5 acetone / 7 dimethylformamide); details: 96 h, rice plants, larvae, after 4 days
Description: Nilaparvata lugens—Spray Test
as §6, §7
as §8, with “solvents” for “solvent,”, “and” for “and the concentrate”, “concentration. Further test concentrations are prepared by dilution with emulsifier containing water.” for “concentration.”
Rice plants (Oryza sativa) are treated by being sprayed with the desired concentration of the active compound and are infested with larvae of the brown planthopper (Nilaparvata lugens).
After 4 days mortality in % is determined. 100% means all planthoppers have been killed and 0% means none of the planthoppers have been killed.

Plutella xylostella = Plutella xylostella spray test; details: 100 ppm; cabbage leaves, larvae; after 7 days
Description: Plutella xylostella—Spray Test
Solvent: 14 parts by weight of dimethylformamide
Emulsifier: alkylaryl polyglycol ether
as §4, with “solvent” for “solvents”
Cabbage leaves (Brassica oleracea) are treated by being sprayed with the preparation of the active compound of the desired concentration and are infested with larvae of the diamondback moth (Plutella xylostella).
After 7 days, mortality in % is determined. 100% means all the caterpillars have been killed and 0% means none of the caterpillars have been killed.

Musca domestica = Musca domestica test; details: 100 ppm; adult house flies; after 2 days
Description: as §1
To produce a suitable preparation of active compound, 10 mg of active compound are dissolved in 0.5 ml solvent, and the concentrate is diluted with water to the desired concentration.
10 adult house flies (Musca domestica) are transferred into a container, containing a sponge soaked with a mixture of sugar solution and compound solution of the desired concentration.
After 2 days mortality in % is determined. 100% means all the flies have been killed; 0% means none of the flies have been killed.

O=C(Nc1nc(-c2c(F)cccc2F)ns1)c1c(F)cccc1F [Compound I-1-1, N-[3-(2,6-difluorophenyl)-1,2,4-thiadiazol-5-yl]-2,6-difluorobenzamide]
efficacy (infertile eggs) (Boophilus microplus): 100%
mortality at 100 ppm (Ctenocephalides felis [1]): 95%
mortality at 20 ppm (Haemonchus contortus; Haemonchus contortus, 120 h, read-out: larval mortality (efficacy)): 80%
nematicidal activity (gall formation) (Meloidogyne incognita): 90%
mortality at 500 g/ha (Phaedon cochleariae): ≥ 80%
mortality at 500 g/ha (Tetranychus urticae): ≥ 70%
mortality at 500 g/ha (Nezara viridula): ≥ 90%

O=C(Nc1nc(-c2c(F)cccc2F)ns1)c1ccccc1F [Compound I-1-2]
larval mortality (efficacy) (Haemonchus contortus): 100%
nematicidal activity (gall formation) (Meloidogyne incognita): 100%

O=C(Nc1nc(-c2c(F)cccc2F)ns1)c1ccccc1Br [Compound I-1-5, 2-Bromo-N-[3-(2,6-difluorophenyl)-1,2,4-thiadiazol-5-yl]benzamide]
efficacy (infertile eggs) (Boophilus microplus): 100%
mortality at 100 ppm (Lucilia cuprina): 70 to 100%
nematicidal activity (gall formation) (Meloidogyne incognita): 90%
mortality at 500 g/ha (Phaedon cochleariae): ≥ 80%
mortality at 500 g/ha (Tetranychus urticae): ≥ 70%

O=C(Nc1nc(-c2c(F)cccc2F)ns1)c1cccnc1C(F)(F)F [Compound I-1-6, N-[3-(2,6-difluorophenyl)-1,2,4-thiadiazol-5-yl]-2-(trifluoromethyl)nicotinamide]
efficacy (fleas dead or moribund) (Ctenocephalides felis [2]): 100%
efficacy (infertile eggs) (Boophilus microplus): 100%
mortality at 100 ppm (Ctenocephalides felis [1]): 100%
mortality at 100 ppm (Lucilia cuprina): 100%
efficacy (seedling growth) (Diabrotica balteata): 80%
nematicidal activity (gall formation) (Meloidogyne incognita): 100%
mortality at 500 g/ha (Myzus persicae): ≥ 70%
mortality at 500 g/ha (Nilaparvata lugens): ≥ 80%

O=C(Nc1nc(-c2c(F)cccc2F)ns1)c1ccccc1[N+](=O)[O-] [Compound I-1-10]
nematicidal activity (gall formation) (Meloidogyne incognita): 100%
mortality (Plutella xylostella): 100%

O=C(Nc1nc(-c2c(F)cccc2F)ns1)c1cccc(F)c1C(F)(F)F [Compound I-1-11]
efficacy (infertile eggs) (Boophilus microplus): 100%
mortality (Plutella xylostella): 100%

O=C(Nc1nc(-c2c(F)cccc2F)ns1)c1c(F)cccc1C(F)(F)F [Compound I-1-12]
efficacy (infertile eggs) (Boophilus microplus): 100%
nematicidal activity (gall formation) (Meloidogyne incognita): 100%
mortality (Plutella xylostella): 100%

O=C(Nc1nc(-c2ccc(F)cc2F)ns1)c1cccnc1C(F)(F)F [Compound I-1-56]
larval mortality (efficacy) (Haemonchus contortus): 80%

O=C(Nc1nc(-c2ccccc2F)ns1)c1cccnc1C(F)(F)F [Compound I-1-57]
efficacy (infertile eggs) (Boophilus microplus): 100%
mortality (Musca domestica): 100%
efficacy (seedling growth) (Diabrotica balteata): 100%

O=C(Nc1nc(-c2c(C(F)(F)F)cccc2C(F)(F)F)ns1)c1cccnc1C(F)(F)F [Compound I-1-65, N-{3-[2,6-Bis(trifluoromethyl)phenyl]-1,2,4-thiadiazol-5-yl}-2-(trifluoromethyl)nicotinamide]
mortality at 500 g/ha (Nezara viridula): ≥ 90%
mortality at 500 g/ha (Nilaparvata lugens): ≥ 80%

O=C(Nc1nc(-c2ncc(C(F)(F)F)cc2Cl)ns1)c1cccnc1C(F)(F)F [Compound I-2-3, N-{3-[3-Chloro-5-(trifluoromethyl)pyridin-2-yl]-1,2,4-thiadiazol-5-yl}-2-(trifluoromethyl)nicotinamide]
mortality at 500 g/ha (Myzus persicae): ≥ 70%
mortality at 500 g/ha (Phaedon cochleariae): ≥ 80%

O=C(Nc1nc(-c2ncccc2Cl)ns1)c1ccccc1Cl [Compound I-2-6, 2-Chloro-N-[3-(3-chloropyridin-2-yl)-1,2,4-thiadiazol-5-yl]benzamide]
mortality at 500 g/ha (Phaedon cochleariae): ≥ 80%
mortality at 500 g/ha (Tetranychus urticae): ≥ 70%
mortality at 500 g/ha (Nilaparvata lugens): ≥ 80%
